Results as given in paper PMC8478262 (Blood Cancer Discovery, 2021).
Where two headings read alike, the source gives them in different places.

Experiments:
MOLM-14 cells = format: cell-based; settings: for increase in IC50 (inhibition) in the presence of 50% human plasma: 50% human plasma vs 10% FBS
Ba/F3-FLT3/ITD-Luc cells = format: in vivo, BALB/c mice
[1] = Human AGP levels and tolerability in mice after intraperitoneal injection; format: in vivo; settings: 0.3 g/kg i.p.
HL-60 cells = test: Antiproliferative effect of staurosporine on HL-60 cells in the presence of AGP; format: cell-based; settings: until saturating concentrations of drug were used
FLT3 = format: cell-based

**Q.** Which “increase in IC50 (inhibition) in the presence of 50% human plasma” value (MOLM-14 cells; 48 h MTT) does the source give for CC(C)(C)c1cc(NC(=O)Nc2ccc(-c3cn4c(n3)sc3cc(OCCN5CCOCC5)ccc34)cc2)no1 [quizartinib] here?
**A.** 37 fold

**Q.** With CO[C@@H]1[C@H](N(C)C(=O)c2ccccc2)C[C@H]2O[C@]1(C)n1c3ccccc3c3c4c(c5c6ccccc6n2c5c31)C(=O)NC4 [midostaurin] as the compound, how does the “response of transplanted FLT3/ITD cells (bioluminescence day 9)” value (Ba/F3-FLT3/ITD-Luc cells; midostaurin alone, oral gavage 4 days) read?
**A.** regression of the cells

**Q.** And the “response of transplanted FLT3/ITD cells (bioluminescence day 9)” value (Ba/F3-FLT3/ITD-Luc cells; midostaurin plus intraperitoneal human AGP)?
**A.** progression of the cells comparable with that seen in the control animals

**Q.** For CNC(=O)c1cc(Oc2ccc(NC(=O)Nc3ccc(Cl)c(C(F)(F)F)c3)cc2)ccn1 [sorafenib], which “increase in IC50 (inhibition) in the presence of 50% human plasma” value (MOLM-14 cells; 48 h MTT) is on record?
**A.** greater than 100 fold

**Q.** With “human AGP: alpha-1-acid glycoprotein purified from human plasma (Sigma), injected i.p. into mice” as the compound, how does the terminal half-life [1] read?
**A.** approximately 17 hours

**Q.** With CN[C@@H]1C[C@H]2O[C@@](C)([C@@H]1OC)n1c3ccccc3c3c4c(c5c6ccccc6n2c5c31)C(=O)NC4 [staurosporine] as the compound, how does the “antiproliferative activity in the presence of AGP” value (HL-60 cells) read?
**A.** no appreciable activity

**Q.** For CCc1nc(C(N)=O)c(Nc2ccc(N3CCC(N4CCN(C)CC4)CC3)c(OC)c2)nc1NC1CCOCC1 [gilteritinib], which “effect of plasma proteins on activity” value (MOLM-14 cells; 50% human plasma or 50 mg/dL AGP, 48 h MTT) is on record?
**A.** minimally affected

**Q.** Which results are given for CC#C[C@]1(O)CC[C@H]2[C@@H]3CCC4=CC(=O)CCC4=C3[C@@H](c3ccc(N(C)C)cc3)C[C@@]21C [mifepristone]?
**A.** effect of mifepristone alone on cell growth (MOLM-14 cells; at concentrations of maximal effect, no TKI): no appreciable effect on cell growth; impact upon TTT-3002 dose–response curves in the absence of AGP (MOLM-14 cells; no AGP): had no impact; effect alone upon FLT3 autophosphorylation or downstream signaling (FLT3; mifepristone alone): no effect; response of transplanted FLT3/ITD cells (bioluminescence day 9) (Ba/F3-FLT3/ITD-Luc cells; midostaurin plus human AGP plus oral mifepristone): regression of the transplanted cells comparable with those of the midostaurin alone–treated mice

**Q.** For C[C@]12O[C@H](C[C@]1(O)CO)n1c3ccccc3c3c4c(c5c6ccccc6n2c5c31)CNC4=O [lestaurtinib], which “IC50 in 50% human plasma compared with 10% FBS” value (MOLM-14 cells; 50% human plasma from healthy donors, 48 h) is on record?
**A.** IC50s were no longer reached

**Q.** And the “increase in IC50 (inhibition) in the presence of 50% human plasma” value (MOLM-14 cells; 48 h MTT)?
**A.** greater than 100 fold

**Q.** What about the “activity across a range of AGP concentrations” value (MOLM-14 cells; AGP 31 µg/mL – 2 mg/mL, 48 h MTT) of the same compound?
**A.** appreciable activity is seen only at AGP concentrations less than one tenth of physiologic human levels

**Q.** What about the “IC50 increase by bovine AGP” value (MOLM-14 cells; bovine AGP adjusted to human-comparable levels) of the same compound?
**A.** ~5 fold

**Q.** And the “FLT3 phosphorylation inhibition in the presence of human plasma” value (FLT3; 10 nmol/L and 100 nmol/L TKI, 50% human plasma)?
**A.** no appreciable FLT3 TKI activity
